Assay results taken from patent EP0967201A1, “Pharmaceutical agents containing sulfonamids as matrix metalloproteinase inhibitors” (Roche Diagnostics GmbH, priority 1998, dated 1999).
pIC50: −log10 of the molar value.

What was measured:
MMP-8 = molecular target: T1, MMP-8 (Homo sapiens, UniProt P22894); test: MMP inhibition enzyme assay (initial reaction rate, standard substrate DNP-Pro-Leu-Gly-Leu-Trp-Ala-D-Arg-NH2); type: biochemical; details: 8 nM catalytic domain (Met80-Gly242) of human neutrophil collagenase; 10 microM substrate; pH 7.6; read-out: MMP-8 Inhib. [%] IC50
T1 construct: catalytic domain (Met80-Gly242) of human neutrophil collagenase; made in house
T1 sequence (P22894 100-262 limits assumed): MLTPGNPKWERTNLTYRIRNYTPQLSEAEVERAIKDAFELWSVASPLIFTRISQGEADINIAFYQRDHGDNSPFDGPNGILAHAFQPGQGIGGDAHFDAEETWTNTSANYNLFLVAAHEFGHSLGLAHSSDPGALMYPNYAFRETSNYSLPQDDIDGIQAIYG
Method: (§1) In order to determine the inhibition of MMPs, for example MMP-8, the catalytic domain (isolation and purification see for example Schnierer, S., Kleine, T., Gote, T., Hillemann, A., Knäuper, V., Tschesche, H.,Biochem. Biophys. Res. Commun. (1993) 191, 319-326) is incubated with inhibitors having various concentrations. Subsequently, the initial reaction rate in the conversion of a standard substrate is measured in a manner analogous to Grams F. et al., FEBS 335 (1993) 76-80). Alternatively the percent inhibition will be determined at a distant inhibitor concentration.
(§2) The assays for other MMPs are performed in a analogous manner. • Assay buffer: 50 mM Tris/HCI pH 7.6 (Tris= Tris-(hydroxymethyl)-aminomethan) 100 mM NaCl/10 mM CaCl2-/5% MeOH (if necessary) • Enzyme: 8 nM catalytic domain (Met80-Gly242) of human neutrophil collagenase • Substrate: 10 microM DNP-Pro-Leu-Gly-Leu-Trp-Ala-D-Arg-NH2 • Total assay volume: 1 ml

MMP-9 = MMP-9 (Homo sapiens, UniProt P14780); test: MMP inhibition enzyme assay, performed in an analogous manner to MMP-8; type: biochemical; details: compound concentration 0.21 µM (100 ng/ml); read-out: MMP-9 Inhib. [%]
Chain of MMP-9 (P14780 94-707, species assumed): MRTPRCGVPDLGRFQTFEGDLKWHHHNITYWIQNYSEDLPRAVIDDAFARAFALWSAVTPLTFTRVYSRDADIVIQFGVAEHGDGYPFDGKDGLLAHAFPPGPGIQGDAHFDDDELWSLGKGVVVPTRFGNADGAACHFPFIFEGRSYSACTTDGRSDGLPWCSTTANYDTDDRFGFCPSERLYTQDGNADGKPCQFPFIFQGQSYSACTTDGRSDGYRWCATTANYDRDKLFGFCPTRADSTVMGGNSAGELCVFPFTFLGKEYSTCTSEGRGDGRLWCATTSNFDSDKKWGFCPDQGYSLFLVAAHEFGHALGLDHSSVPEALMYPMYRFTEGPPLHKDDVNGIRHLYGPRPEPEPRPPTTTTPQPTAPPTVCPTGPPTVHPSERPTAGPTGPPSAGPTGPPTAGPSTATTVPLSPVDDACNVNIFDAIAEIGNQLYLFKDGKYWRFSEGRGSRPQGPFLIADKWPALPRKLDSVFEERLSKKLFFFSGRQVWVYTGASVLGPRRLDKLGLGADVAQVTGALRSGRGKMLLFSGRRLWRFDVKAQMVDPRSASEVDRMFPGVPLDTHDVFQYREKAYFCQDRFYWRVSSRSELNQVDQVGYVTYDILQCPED
Method: as §1, §2

SMILES | pIC50 (MMP-8) | inhibition at 0.21 µM (MMP-9) [%]
O=C(O)[C@H](CSCc1ccccc1)NS(=O)(=O)c1ccc(-c2ccc(Cl)cc2)cc1 [Example 1, N-(p-Chloro-biphenylsulfonyl)-S-benzyl-cysteine] | 7.67 | 
O=C(C[C@H](NS(=O)(=O)c1ccc(-c2ccc(Cl)cc2)cc1)C(=O)O)OCc1ccccc1 [Example 2, L-N-(p-Chlorobiphenylsulfonyl)-aspartic acid-β-benzylester] | 7.31 | 38
